We go through 21 compounds from patent US10947216B2, “Amide compounds and method for making and using” (Rigel Pharmaceuticals, Inc., priority 2016, dated 2021).

pEC50: −log10 of the molar value. Structures can show the parent of a compound that is named as a salt.

The subject of one test is IL-23 (p19/p40). The test is described as follows: IL23-p19 ELISA, dendritic cells (DC differentiated from human PBMC, IFNγ primed), LPS stimulated. Type of test: cell-based. The note with it: Dendritic cell, human PBMC-derived dendritic cells, 1 h compound pre-incubation, LPS 1 μg/ml 18 hours, 10 pt. The method, boiled down: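 PBMC-derived DCs (GM-CSF 100 ng/ml + IL-4 20 ng/ml, 7 days) primed 24 h with IFNγ 50 ng/ml, 50K cells/well; compound pre-incubated 1 h at 37° C, then LPS, 18 h. Supernatant IL-23 by p19-capture/p40-detection chemiluminescent ELISA; cytotoxicity by Cell Titer Glo.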
On the technique in general: ELISA stands for enzyme-linked immunosorbent assay.

The test system of a further test is IL-23p19. Description: LPS Induced IL23p19 in THP-1 Cells (with IFNγ Primed) Assay. The note with it: Homo sapiens, THP-1, THP-1 cells, IFNγ (50 ng/mL) primed, 1 hour compound pre-incubation, LPS 1 ug/mL 18 hours, 10 pt; read-out: IL23-p19 ELISA, THP1-IFNy, LPS, 10 pt EC50. It counts as cell-based, human. The method, boiled down:
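THP-1 cells (50K/well) primed ~18 h with IFNγ (50 ng/mL) in RPMI/10% FBS, then incubated with compound in duplicate for 18 h at 37° C. Supernatant IL-23p19 measured by chemiluminescent sandwich ELISA, giving EC50 by curve fitting. Toxicity assessed in parallel on the remaining cells by Cell Titer Glo.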

With `Cn1cc(NC(=O)c2nccc(-c3cn[nH]c3)n2)c(-c2ccccn2)n1` [Compound I-124, N-(1-methyl-3-(pyridin-2-yl)-1H-pyrazol-4-yl)-4-(1H-pyrazol-4-yl)pyrimidine-2-carboxamide], the results for the negative-log EC50 (pEC50) with IL-23 (p19/p40) and in the test on IL-23p19 were 5.81 and 5.18, respectively.
For `O=C(Nc1cn(C2COC2)nc1-c1ccccn1)c1cccc(-c2cncc(F)c2)n1` [Compound I-131, 5′-fluoro-N-(1-(oxetan-3-yl)-3-(pyridin-2-yl)-1H-pyrazol-4-yl)-[2,3′-bipyridine]-6-carboxamide] the same measures were 4.89 and 5.18.
Turning to `O=C(Nc1cn(C2COC2)nc1-c1ccccn1)c1cccc(-c2cncc(C(F)(F)F)c2)n1` [Compound I-132, N-(1-(oxetan-3-yl)-3-(pyridin-2-yl)-1H-pyrazol-4-yl)-5′-(trifluoromethyl)-[2,3′-bipyridine]-6-carboxamide], the pEC50 is 5.11 in the test on IL-23 (p19/p40) and 4.26 with IL-23p19.
For `NC(=O)c1cncc(-c2cccc(C(=O)Nc3cn(C4COC4)nc3-c3ccccn3)n2)c1` [Compound I-133, N6-(1-(oxetan-3-yl)-3-(pyridin-2-yl)-1H-pyrazol-4-yl)-[2,3′-bipyridine]-5′,6-dicarboxamide] the same measures were 5.18 and 4.96.
For the compound `Cn1cc(-c2cccc(C(=O)Nc3cn(C4COC4)nc3-c3ccccn3)n2)cn1` [Compound I-134, 6-(1-methyl-1H-pyrazol-4-yl)-N-(1-(oxetan-3-yl)-3-(pyridin-2-yl)-1H-pyrazol-4-yl)picolinamide], the pEC50 in the test with IL-23 (p19/p40) is 5.66; in the test on IL-23p19, 5.90.
For `Cc1cc(-c2cccc(C(=O)Nc3cn(C4COC4)nc3-c3ccccn3)n2)[nH]n1` [Compound I-136, 6-(3-methyl-1H-pyrazol-5-yl)-N-(1-(oxetan-3-yl)-3-(pyridin-2-yl)-1H-pyrazol-4-yl)picolinamide] the same measures were 6.70 and 6.33.
For `Cn1cc(NC(=O)c2ccnc(-c3cn[nH]c3)n2)c(-c2ccccn2)n1` [Compound I-137, N-(1-methyl-3-(pyridin-2-yl)-1H-pyrazol-4-yl)-2-(1H-pyrazol-4-yl)pyrimidine-4-carboxamide] the same measures were 5.30 and 5.40.
The matching figures for `Cn1cc(NC(=O)c2ccnc(-c3cc[nH]n3)n2)c(-c2ccccn2)n1` [Compound I-138, N-(1-methyl-3-(pyridin-2-yl)-1H-pyrazol-4-yl)-2-(1H-pyrazol-3-yl)pyrimidine-4-carboxamide]: 5.93 and 4.53.
As to `COCCOCCn1cc(NC(=O)c2cccc(-c3ccnc(OC)c3)n2)c(-c2ccccn2)n1` [Compound I-141, 2′-methoxy-N-(1-(2-(2-methoxyethoxy)ethyl)-3-(pyridin-2-yl)-1H-pyrazol-4-yl)-[2,4′-bipyridine]-6-carboxamide formate], the figures for the pEC50 in the test on IL-23 (p19/p40) and in the test with IL-23p19 were 5.55 and 5.07, respectively.
The matching figures for `COCCOCCn1cc(NC(=O)c2cccc(-c3ccc(N)nc3)n2)c(-c2ccccn2)n1` [Compound I-142, 6′-amino-N-(1-(2-(2-methoxyethoxy)ethyl)-3-(pyridin-2-yl)-1H-pyrazol-4-yl)-[2,3′-bipyridine]-6-carboxamide formate]: 5.59 and 6.12.
The matching figures for `COCCOCCn1cc(NC(=O)c2cccc(-c3ccnc(C)c3)n2)c(-c2ccccn2)n1` [Compound I-146, N-(1-(2-(2-methoxyethoxy)ethyl)-3-(pyridin-2-yl)-1H-pyrazol-4-yl)-2′-methyl-[2,4′-bipyridine]-6-carboxamide formate]: 5.23 and 5.37.
The matching figures for `COCCOCCn1cc(NC(=O)c2cccc(-c3cc4ccc(OC)cc4[nH]3)n2)c(-c2ccccn2)n1` [Compound I-147, 6-(6-methoxy-1H-indol-2-yl)-N-(1-(2-(2-methoxyethoxy)ethyl)-3-(pyridin-2-yl)-1H-pyrazol-4-yl)picolinamide formate]: 4.97 and 4.39.
As to `COCCOCCn1cc(NC(=O)c2cccc(-c3cnn(-c4cccc(Cl)c4)c3)n2)c(-c2ccccn2)n1` [Compound I-148, 6-(1-(3-chiorophenyl)-1H-pyrazol-4-yl)-N-(1-(2-(2-methoxyethoxy)ethyl)-3-(pyridin-2-yl)-1H-pyrazol-4-yl)picolinamide formate], the negative-log EC50 (pEC50) is 5.20 in the test on IL-23 (p19/p40) and 5.35 in the test on IL-23p19.
For `COCCOCCn1cc(NC(=O)c2cccc(-c3cncc(C)c3)n2)c(-c2ccccn2)n1` [Compound I-149, N-(1-(2-(2-methoxyethoxy)ethyl)-3-(pyridin-2-yl)-1H-pyrazol-4-yl)-5′-methyl-[2,3′-bipyridine]-6-carboxamide formate] the same measures were 5.85 and 5.92.
On to `COCCOCCn1cc(NC(=O)c2cccc(-c3cc[nH]n3)n2)c(-c2ccccn2)n1` [Compound I-150, N-(1-(2-(2-methoxyethoxy)ethyl)-3-(pyridin-2-yl)-1H-pyrazol-4-yl)-6-(1H-pyrazol-3-yl)picolinamide formate], for which the pEC50 is 7.18 with IL-23 (p19/p40) and 5.47 in the test on IL-23p19.
For `COCCOCCn1cc(NC(=O)c2cccc(-c3ccoc3)n2)c(-c2ccccn2)n1` [Compound I-151, 6-(furan-3-yl)-N-(1-(2-(2-methoxyethoxy)ethyl)-3-(pyridin-2-yl)-1H-pyrazol-4-yl)picolinamide 2,2,2-trifluoroacetate] the same measures were 5.38 and 5.10.
On to `COCCOCCn1cc(NC(=O)c2cccc(-c3ccco3)n2)c(-c2ccccn2)n1` [Compound I-152, 6-(furan-2-yl)-N-(1-(2-(2-methoxyethoxy)ethyl)-3-(pyridin-2-yl)-1H-pyrazol-4-yl)picolinamide 2,2,2-trifluoroacetate], for which the negative logarithm of the EC50 (pEC50) was 4.85 in the test on IL-23 (p19/p40) and 4.91 with IL-23p19.
Turning to `COCCOCCn1cc(NC(=O)c2cccc(-c3cn[nH]c3)n2)c(-c2ccccn2)n1` [Compound I-153, N-(1-(2-(2-methoxyethoxy)ethyl)-3-(pyridin-2-yl)-1H-pyrazol-4-yl)-6-(1H-pyrazol-4-yl)picolinamide formate], the pEC50 was 6.20 in the test with IL-23 (p19/p40) and 6.33 in the test with IL-23p19.
For `COCCOCCn1cc(NC(=O)c2cccc(Nc3ccc4[nH]ncc4c3)n2)c(-c2ccccn2)n1` [Compound I-154, 6-((1H-indazol-5-yl)amino)-N-(1-(2-(2-methoxyethoxy)ethyl)-3-(pyridin-2-yl)-1H-pyrazol-4-yl)picolinamide formate] the same measures were 5.19 and 5.31.
As for `COCCOCCn1cc(NC(=O)c2cccc(Nc3ccc4n[nH]cc4c3)n2)c(-c2ccccn2)n1` [Compound I-155, 6-((2H-indazol-5-yl)amino)-N-(1-(2-(2-methoxyethoxy)ethyl)-3-(pyridin-2-yl)-1H-pyrazol-4-yl)picolinamide formate], the negative logarithm of the EC50 (pEC50) with IL-23 (p19/p40) was 5.62; in the test on IL-23p19 it was 5.21.
The matching figures for `COCCOCCn1cc(NC(=O)c2cccc(Oc3ccnc(N)c3)n2)c(-c2ccccn2)n1` [Compound I-156, 6-((2-aminopyridin-4-yl)oxy)-N-(1-(2-(2-methoxyethoxy)ethyl)-3-(pyridin-2-yl)-1H-pyrazol-4-yl)picolinamide formate]: 5.56 and 4.67.

A word on the pEC50: it is the EC50 on a negative log10 scale, so that one unit is a factor of ten.
